Data as given in patent publication US9265189B2, “Method for reducing damage by harmful organisms in corn cultivation” (SUMITOMO CHEMICAL COMPANY, LIMITED, priority 2012, dated 2016).

System: Agriotes spp.
Assay: Field test, corn plants damaged by Agriotes spp. after in-furrow spray (Example 1)
Type: in vivo
Conditions: Example section 1: clothianidin 50 g/ha, in-furrow spray of Dantop 50WG aqueous suspension 100 L/ha, corn DK 440, 35 days after application; non-treatment section 43
Procedure: Using a pneumatic seeder (disk furrow opener, manufactured by Gaspardo) equipped with a power sprayer (trade name: WJR 2525, manufactured by HONDA), a cultivated land was ditched at intervals of 75 cm to a depth of 3 cm from the soil surface, and the furrow was seeded with corn (Zea Mays, trade name: DK 440; hybrid variety, manufactured by Monsanto) at intervals of 13 cm. A seeding density of corn was 100000 seeds/ha. Then, the furrow was spray-treated with an aqueous suspension of a clothianidin water dispersible granule (using a 50% dispersible granule, trade name: Dantop 50WG, manufactured by Philagro) at 100 L/ha so that the application amount of clothianidin was 50 g/ha, and then a soil on the side of the furrow was gathered together to close the furrow. This was defined as an example section 1. For comparison, a non-treatment section, which was seeded with corn without application of a clothianidin water dispersible granule, was provided. […] 35 days after application of the clothianidin water dispersible granule, the number of plants of corn damaged by Agriotes spp. in each of the example section 1 and the non-treatment section was investigated, a damage plant rate was calculated in accordance with the following equation, and then an average damage plants rate of the four investigation sections was determined. […]

Compound: CN/C(=N\[N+](=O)[O-])NCc1cnc(Cl)s1 [clothianidin]
- Damage plant rate (%): 0%
